According to ChEMBL document CHEMBL1201862, “PubChem BioAssay data set” (2004):
Several values for one entry are separate records, joined by “and”; a condition that tells them apart may be missing. Equal values may be shown once.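 Five concentrations, 48 hours, 96-well plates. GI50 is the concentration that inhibits growth by half.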 Activity calls are given as the source filed them. No stated cut-off is given here; in the data, active = GI50 up to about 1.1 µM and inactive = higher.

Legend:
Assay in all cases: NCI-60 cell line screen, 48 h
SF-539 = tested on: SF-539
NCI/ADR-RES = tested on: NCI/ADR-RES
SF-268 = tested on: SF-268
HCT-15 = tested on: HCT-15
SNB-75 = tested on: SNB-75
K562 = tested on: K562
U-251 = tested on: U-251
PC-3 = tested on: PC-3
UO-31 = tested on: UO-31
RXF 393 = tested on: RXF 393
CAKI-1 = tested on: CAKI-1
SK-MEL-2 = tested on: SK-MEL-2
IGROV-1 = tested on: IGROV-1
Malme-3M = tested on: Malme-3M
HL-60 = tested on: HL-60
HOP-62 = tested on: HOP-62
A498 = tested on: A498
SN12C = tested on: SN12C
MCF7 = tested on: MCF7
NCI-H460 = tested on: NCI-H460

| Compound | GI50 (SF-539) | GI50 (NCI/ADR-RES) | GI50 (SF-268) | GI50 (HCT-15) | GI50 (SNB-75) | GI50 (K562) | GI50 (U-251) | GI50 (PC-3) | GI50 (UO-31) | GI50 (RXF 393) | GI50 (CAKI-1) | GI50 (SK-MEL-2) | GI50 (IGROV-1) | GI50 (Malme-3M) | GI50 (HL-60) | GI50 (HOP-62) | GI50 (A498) | GI50 (SN12C) | GI50 (MCF7) | GI50 (NCI-H460) |
| --- | --- | --- | --- | --- | --- | --- | --- | --- | --- | --- | --- | --- | --- | --- | --- | --- | --- | --- | --- | --- |
| Cc1ccc(NC(=O)/C(Cc2cc(=O)oc3cc(O)ccc23)=N\NC(=O)C[N+](C)(C)C)cc1C | > 100 µM (inactive) | > 100 µM (inactive) | > 100 µM (inactive) | > 100 µM | > 100 µM (inactive) | > 100 µM (inactive) | > 100 µM (inactive) | > 100 µM (inactive) | > 100 µM (inactive) | 66.2 µM (inactive) | > 100 µM (inactive) | > 100 µM (inactive) | > 100 µM (inactive) | > 100 µM (inactive) | > 100 µM (inactive) | > 100 µM (inactive) | > 100 µM (inactive) | > 100 µM (inactive) | > 100 µM (inactive) | > 100 µM (inactive) |
| COc1cc(C2c3cc4c(cc3OC(NNS(=O)(=O)c3ccc(C)cc3)C2C)OCO4)cc(OC)c1OC (stereo not given) | 0.984 µM (active) | 3.24 µM (inactive) | 3.95 µM (inactive) | 1.29 µM | 3.02 µM (inactive) | 0.55 µM (active) | 2.14 µM (inactive) | 1.28 µM (inactive) | 5.14 µM (inactive) | 1.76 µM (inactive) | 1.68 µM (inactive) | 0.984 µM (active) | 2.68 µM (inactive) | 3.04 µM (inactive) | 0.5 µM (active) | 0.817 µM (active) | 1.26 µM (inactive) | 4.21 µM (inactive) | 1.48 µM (inactive) | 2.13 µM (inactive) |
| Cc1ccc(-c2c(-c3ccccc3)[nH]c(C)c2C(=O)ONC(=O)c2ccccc2)cc1 | 2.97 µM (inactive) | 4.65 µM (inactive) | 2.36 µM (inactive) | 9.25 µM | 1.92 µM (inactive) | 2.55 µM (inactive) | 1.84 µM (inactive) | 5.92 µM (inactive) | 0.303 µM (active) | 1.87 µM (inactive) | 2.19 µM (inactive) | 3.7 µM (inactive) | 1.46 µM (inactive) | 11.4 µM (inactive) | 0.673 µM (active) | 1.99 µM (inactive) | 12.7 µM (inactive) | 2.53 µM (inactive) | 4.84 µM (inactive) | 2.17 µM (inactive) |
| Clc1cccc(Cl)c1C(Nc1nncs1)Nc1nncs1 | 23.9 µM (inactive) | 50 µM (inactive) | 81.7 µM (inactive) | 13 µM | > 100 µM (inactive) | 31.7 µM (inactive) | 41.1 µM (inactive) | 9.35 µM (inactive) | 62.7 µM (inactive) | 33.5 µM (inactive) | 75.3 µM (inactive) | 38.6 µM (inactive) | 55.3 µM (inactive) | 64.4 µM (inactive) | 17.3 µM (inactive) | 50.4 µM (inactive) | 49.2 µM (inactive) | 38.4 µM (inactive) | 36 µM (inactive) | 25 µM (inactive) |
| CN/N=C(/CCN1CCCC1)CC(c1ccccc1)c1c(O)c2ccccc2oc1=O (stereo not given) | > 100 µM (inactive) | > 100 µM (inactive) | > 100 µM (inactive) | > 100 µM | 19.4 µM (inactive) | > 100 µM (inactive) | > 100 µM (inactive) | > 100 µM (inactive) | > 67.1 µM (inactive) | > 100 µM (inactive) | > 100 µM (inactive) | > 100 µM (inactive) | > 100 µM (inactive) | 39.4 µM (inactive) | 61.5 µM (inactive) | > 100 µM (inactive) | > 100 µM (inactive) | > 100 µM (inactive) | > 100 µM (inactive) | > 100 µM (inactive) |
| O=C1N/C(=N/N=C\C(O)C(O)C(O)C(O)CO)N/C1=C/c1ccc(Cl)cc1 (stereo not given) | > 100 µM (inactive) | > 100 µM (inactive) | > 100 µM (inactive) and 98.2 µM (inactive) | 76 µM and 50.6 µM | > 100 µM (inactive) | 55.6 µM (inactive) and 27.7 µM (inactive) | > 100 µM (inactive) | > 100 µM (inactive) | > 100 µM (inactive) | > 100 µM (inactive) | > 100 µM (inactive) | > 100 µM (inactive) | > 100 µM (inactive) | 97.3 µM (inactive) | 14.4 µM (inactive) and 23.8 µM (inactive) | > 100 µM (inactive) | > 100 µM (inactive) | > 100 µM (inactive) | > 100 µM (inactive) | > 100 µM (inactive) |
| O=C(Cc1ccc(Cl)c(Cl)c1)NCCCN1CCN(CCCN2CCCCC2)CC1 | 14.2 µM (inactive) | > 100 µM (inactive) | 19.5 µM (inactive) | 20.7 µM | 19.5 µM (inactive) | 2.17 µM (inactive) | 15.7 µM (inactive) | 18.5 µM (inactive) | 1.84 µM (inactive) | 13.2 µM (inactive) | 20.4 µM (inactive) | 6.59 µM (inactive) | 27.1 µM (inactive) | 17.6 µM (inactive) | 17.8 µM (inactive) | 17 µM (inactive) | 16.4 µM (inactive) | 18.8 µM (inactive) | 18.5 µM (inactive) | 16.6 µM (inactive) |
| O=C1/C(=N\n2c(S)nnc2-c2ccncc2)c2cc(Cl)ccc2N1CN1CCCCC1 | 35 µM (inactive) | 57.5 µM (inactive) | 53.5 µM (inactive) | 25.4 µM | 34.3 µM (inactive) | 20.5 µM (inactive) | 40.4 µM (inactive) | 34.5 µM (inactive) | 56.5 µM (inactive) | 15.8 µM (inactive) | 33.7 µM (inactive) | 20.9 µM (inactive) | 16.1 µM (inactive) | > 100 µM (inactive) | 13.1 µM (inactive) | 30.3 µM (inactive) | 50.9 µM (inactive) | 55.8 µM (inactive) | 31.2 µM (inactive) | 36.8 µM (inactive) |
| C=CC(Br)(CBr)CCC(Br)C(C)C (stereo not given) | 2.66 µM (inactive) | 7.85 µM (inactive) | 5.48 µM (inactive) | 4.66 µM | 1.95 µM (inactive) | 2.11 µM (inactive) | 3.66 µM (inactive) | 7 µM (inactive) | 13 µM (inactive) | 5.89 µM (inactive) | 6.58 µM (inactive) | 2.96 µM (inactive) | 3.46 µM (inactive) | 13.5 µM (inactive) | 0.769 µM (active) | 3.18 µM (inactive) | 18.7 µM (inactive) | 10.7 µM (inactive) | 1.82 µM (inactive) | 4.71 µM (inactive) |
| CCn1c(SCC(=O)NNC(=S)Nc2ccc([N+](=O)[O-])cc2)nc2ccccc2c1=O | > 100 µM (inactive) | > 100 µM (inactive) | 60.1 µM (inactive) | 47 µM | 83.4 µM (inactive) | 42.7 µM (inactive) | 73.3 µM (inactive) | 41.4 µM (inactive) | 39.5 µM (inactive) | 34.5 µM (inactive) | > 100 µM (inactive) | > 100 µM (inactive) | > 100 µM (inactive) | 73.5 µM (inactive) | 40.7 µM (inactive) | 81.1 µM (inactive) | 48.2 µM (inactive) | 50.9 µM (inactive) | 83.4 µM (inactive) | 48.8 µM (inactive) |
